Data published in patent publication US6359133B2, “Halogen pyrimidinyl aryl (thio) ethers as pesticides” (Bayer Aktiengesellschaft, priority 1996, dated 2002).

What was measured:
Pyriculaia oryzae = format: in vivo; conditions: rice, protective, 750 g/ha, evaluation 4 days after inoculation, vs untreated control
[1] = test system: Erysiphe graminis f.sp. hordei; assay: Erysiphe test (barley)/protective; format: in vivo; conditions: protective, 250 g/ha, evaluation 7 days after inoculation, vs untreated control
Protocol: Erysiphe Test (barley)/Protective Solvent: 10 parts by weight of N-methyl-pyrrolidone. Emulsifier: 0.6 part by weight of alkylaryl polyglycol ether. To produce a suitable preparation of active compound, 1 part by weight of active compound is mixed with the stated amounts of solvent and emulsifier, and the concentrate is diluted with water to the desired concentration. To test for protective activity, young plants are sprayed with the preparation of active compound at the stated application rate. After the spray coating has dried on, the plants are dusted with spores of Erysiphe graminis f.sp. hordei.

[2] = logP determination by HPLC (EEC Directive 79/831 Annex V. A8); conditions: gradient method, acetonitrile/0.1% aqueous phosphoric acid

Row | SMILES | efficacy (Pyriculaia oryzae) | also measured
1 | CNC(=O)/C(=N/OC)c1ccccc1Oc1ncnc(Oc2ccccc2Cl)c1F [Example 1, 2-{2-[6-(2-chlorophenoxy)-5-fluoro-pyrimidine4-yloxy]-phenyl}-2-methoxyimino-N-methylacetamide] | 80% | –
2 | CNC(=O)/C(=N/OC)c1ccccc1Oc1ncnc(Oc2ccccc2C)c1F [Example 2, 2-[2-(5-fluoro-6-o-tolyloxy-pyrimidin-4-yloxy)-phenyl]-2-methoxyimino-N-methyl-acetamide] | 80% | efficacy [1]: 100%; chromatographic logP (physchem): 3.04
3 | CNC(=O)C(=NOC)c1ccccc1Oc1ncnc(Oc2ccccc2C#N)c1F [Example 4] | 80% | –
4 | C=CCOc1ccccc1Oc1ncnc(Oc2ccccc2C(=NOC)C(=O)NC)c1F [Example 8] | 80% | efficacy [1]: 100%
5 | CCC(=O)Oc1ccccc1Oc1ncnc(Oc2ccccc2C(=NOC)C(=O)NC)c1F [Example 9] | 80% | –
6 | CON=C(C(N)=O)c1ccccc1Oc1ncnc(Oc2ccccc2Cl)c1F [Example 10] | 80% | –
7 | CNC(=O)C(=NOC)c1ccccc1Oc1ncnc(Oc2ccc(Cl)cc2Cl)c1F [Example 15] | – | logP [2]: 3.61
8 | CNC(=O)C(=NOC)c1ccccc1Oc1ncnc(Oc2cc(C)ccc2C)c1F [Example 20] | 80% | –
9 | CNC(=O)C(=NOC)c1ccccc1Oc1ncnc(Oc2c(C)cccc2C)c1F [Example 21] | 80% | –
10 | CNC(=O)C(=NOC)c1ccccc1Oc1ncnc(Oc2ccc(C)cc2Cl)c1F [Example 22] | 80% | –
11 | CNC(=O)C(=NOC)c1ccccc1Oc1ncnc(Oc2cccc(Cl)c2C)c1F [Example 24] | 80% | –
12 | CO/N=C(/C(N)=O)c1ccccc1O [Example II-1, 2-(2-hydroxy-phenyl)-2-methoxyimino-acetamide] | – | chromatographic logP (physchem): 0.83
